Experimental data reported in patent publication US12234232B2, “Aromatic heterocyclic compound with kinase inhibitory activity” (SHANGHAI ENNOVABIO PHARMACEUTICALS CO., LTD., priority 2018, dated 2025).

What was measured:
Mouse pharmacokinetics = assay type: in vivo; conditions: CD-1 mice, 5 mg/kg, P.O.
Method: Test compound was intravenously (IV) or orally (PO) administrated to CD-1 mice. Blood samples were collected at different time points as indicated below. The concentration of the compounds in the mouse plasma was determined by LC-MS/MS and related parameters were calculated. The details are as follows: the required amount of the test product was taken to prepare a solution of the required concentration for intravenous injection or oral administration. The age of the animals was about 6-8 weeks at the beginning of the dosing experiment. Blood sampling time points are 0.083 h, 0.25 h, 0.5 h, 1 h, 2 h, 4 h, 8 h and 24 h after compound administration. The Phoenix WinNonlin 7.0 software was used to calculate the pharmacokinetic parameters through the blood drug concentration data at different time points.

JAK1 = JAK1 (Homo sapiens, UniProt P23458); experiment: Human whole blood JAK1 activity assay: IL-6-induced STAT1 phosphorylation (CD4+ T cells); assay type: cell-based; set-up: endogenous in cells; conditions: IL-6 (100 ng/mL), read-out: IC50_JAK1 (IL6/pSTAT1)
Method: (§1) Compound inhibition of JAK1 and JAK2 activities was measured in human whole blood: inhibition of IL-6-induced STAT1 phosphorylation (CD4+ T cells) and GM-CSF-induced STAT5 phosphorylation (CD33+ cells) in human whole blood were respectively analysized. The experimental procedures are shown as follows:
(§2) 1) Human whole blood was collected into heparinized tubes, and seeded in a 96-well plate at 100 µL/well, and incubated in a cell incubator for 15 minutes.
(§3) 2) Different concentrations of compounds (25 μL/well) were added into desired wells and incubated at 37° C. under 5% CO2 for 30 minutes. The final concentration of DMSO was 0.2%.
(§4) 3) Blood cells were stimulated with recombinant human IL-6 (100 ng/mL) or recombinant human GM-CSF (20 ng/mL) or PBS at 37° C. and 5% CO2 for 20 minutes.
(§5) 4) The blood was treated with pre-warmed 1× Lysis/Fixing Buffer (BD Phosflow) at 37° C. for 10 minutes to lyse erythrocytes and fix leukocytes.
(§6) 5) After the cells were permeabilized with pre-cooled buffer (Perm buffer III) on ice for 60 minutes, anti-pSTAT1 and anti-CD4 antibodies (IL-6 stimulated samples) or anti-pSTAT5 and anti-CD33 antibodies (GM-CSF stimulated samples) were used to stain the samples at 4° C. for 60 minutes.
(§7) 7) The cells were washed twice and resuspended in buffer for FACS analysis (Thermo Attune NxT).

JAK2 [1] = target: T1, JAK2 (Homo sapiens, UniProt O60674); experiment: Human whole blood JAK2 activity assay: GM-CSF-induced STAT5 phosphorylation (CD33+ cells); assay type: cell-based; set-up: endogenous in cells; conditions: GM-CSF (20 ng/mL), read-out: IC50_JAK2 (GM-CSF/pSTAT5)
Method: as §1, §2, §3, §4, §5, §6, §7

JAK2 [2] = target: T1, JAK2; experiment: In vitro JAK2 kinase activity assay (HTRF kinEASE TK); assay type: biochemical; set-up: purchased Carna Biosciences; conditions: 2.7 μM ATP, 25 minutes, room temperature; read-out: IC50 JAK2 (enzyme activity assay)
Summary of the method: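 HTRF kinase reaction with 0.001 ng/μl recombinant human JAK2, 1 μM biotinylated TK substrate peptide, 2.7 μM ATP, 5 mM MgCl2, 1 mM DTT, 25 min at room temperature; compounds 10 μM–0.04 nM, 4-fold steps, duplicate, 1% DMSO. Detection overnight; 665/620 ratio converted to % inhibition, IC50 by 4-parameter fit.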

JAK2 [3] = target: T1, JAK2; experiment: Cellular JAK2 activity assay: EPO-stimulated STAT5 phosphorylation in TF-1 cells; assay type: cell-based; set-up: endogenous in cells; host or cells: TF-1 cells (ATCC); conditions: EPO (10 U/mL), pSTAT5, read-out: IC50 Cell JAK2
Method: In TF-1 cells, IL-6 stimulation leads to phosphorylation of STAT3 through JAK1, while EPO stimulants phosphorylation of STAT5 via JAK2.
TF-1 cells were obtained from American Type Culture Collection (ATCC). TF-1 cells were starved overnight (cell density was 100,000 cells/well at plating) in OptiMEM medium without phenol red containing 0.5% fetal bovine serum (FBS), 0.1 mM non-essential amino acids (NEAA), 1 mM sodium pyruvate at 37° C. The compound was serially diluted in DMSO, added to TF-1 cells and incubated at 37° C. for 20 minutes. The final concentration of DMSO was 0.2%. Then, human recombinant cytokine IL-6 (30 ng/mL) or EPO (10 U/mL) was added to the wells containing TF-1 cells. After the cell plate was incubated for 30 minutes, cells were lysed, and the phosphorylation of STAT3 (IL-6) or STAT5 (EPO) in the cell lysate (pSTAT3/total STAT3 Elisa Kit: CST #7300C/CST #7305C; pSTAT5 and total STAT5 Elisa Kit: Abcam #ab205715) was measured. The IC50 value was determined as the concentration of the compound required to inhibit STAT phosphorylation by 50% relative to the measured DMSO control.

T1 sequence (O60674 whole entry): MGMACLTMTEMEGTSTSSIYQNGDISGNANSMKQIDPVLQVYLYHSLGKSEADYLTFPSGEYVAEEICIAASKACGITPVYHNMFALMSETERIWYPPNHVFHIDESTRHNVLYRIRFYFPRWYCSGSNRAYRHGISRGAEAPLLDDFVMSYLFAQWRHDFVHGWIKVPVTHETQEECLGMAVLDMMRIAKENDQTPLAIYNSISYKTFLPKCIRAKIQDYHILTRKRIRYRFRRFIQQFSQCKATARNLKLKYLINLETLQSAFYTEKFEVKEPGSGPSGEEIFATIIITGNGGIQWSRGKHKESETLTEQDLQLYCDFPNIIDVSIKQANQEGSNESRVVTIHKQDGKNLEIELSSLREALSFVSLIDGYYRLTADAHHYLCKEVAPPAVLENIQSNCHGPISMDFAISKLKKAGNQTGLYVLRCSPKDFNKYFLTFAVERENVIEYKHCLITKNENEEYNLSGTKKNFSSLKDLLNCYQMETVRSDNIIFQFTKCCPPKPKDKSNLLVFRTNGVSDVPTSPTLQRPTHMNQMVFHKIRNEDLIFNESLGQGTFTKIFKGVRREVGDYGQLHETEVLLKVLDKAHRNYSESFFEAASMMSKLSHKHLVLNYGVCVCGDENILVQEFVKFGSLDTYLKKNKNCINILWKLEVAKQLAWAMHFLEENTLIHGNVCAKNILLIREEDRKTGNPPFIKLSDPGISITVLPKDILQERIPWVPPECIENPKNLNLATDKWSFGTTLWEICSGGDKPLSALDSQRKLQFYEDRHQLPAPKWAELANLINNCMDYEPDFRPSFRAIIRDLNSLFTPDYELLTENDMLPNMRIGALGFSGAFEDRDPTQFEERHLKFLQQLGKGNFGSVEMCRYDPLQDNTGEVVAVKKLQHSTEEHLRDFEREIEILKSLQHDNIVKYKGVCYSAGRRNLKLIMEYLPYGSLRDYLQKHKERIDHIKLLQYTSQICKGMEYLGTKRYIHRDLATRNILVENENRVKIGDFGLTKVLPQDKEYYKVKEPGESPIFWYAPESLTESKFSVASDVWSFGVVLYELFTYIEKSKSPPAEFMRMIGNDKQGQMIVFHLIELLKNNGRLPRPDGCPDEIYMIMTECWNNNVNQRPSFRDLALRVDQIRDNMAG
JAK1, sequence (P23458 whole entry): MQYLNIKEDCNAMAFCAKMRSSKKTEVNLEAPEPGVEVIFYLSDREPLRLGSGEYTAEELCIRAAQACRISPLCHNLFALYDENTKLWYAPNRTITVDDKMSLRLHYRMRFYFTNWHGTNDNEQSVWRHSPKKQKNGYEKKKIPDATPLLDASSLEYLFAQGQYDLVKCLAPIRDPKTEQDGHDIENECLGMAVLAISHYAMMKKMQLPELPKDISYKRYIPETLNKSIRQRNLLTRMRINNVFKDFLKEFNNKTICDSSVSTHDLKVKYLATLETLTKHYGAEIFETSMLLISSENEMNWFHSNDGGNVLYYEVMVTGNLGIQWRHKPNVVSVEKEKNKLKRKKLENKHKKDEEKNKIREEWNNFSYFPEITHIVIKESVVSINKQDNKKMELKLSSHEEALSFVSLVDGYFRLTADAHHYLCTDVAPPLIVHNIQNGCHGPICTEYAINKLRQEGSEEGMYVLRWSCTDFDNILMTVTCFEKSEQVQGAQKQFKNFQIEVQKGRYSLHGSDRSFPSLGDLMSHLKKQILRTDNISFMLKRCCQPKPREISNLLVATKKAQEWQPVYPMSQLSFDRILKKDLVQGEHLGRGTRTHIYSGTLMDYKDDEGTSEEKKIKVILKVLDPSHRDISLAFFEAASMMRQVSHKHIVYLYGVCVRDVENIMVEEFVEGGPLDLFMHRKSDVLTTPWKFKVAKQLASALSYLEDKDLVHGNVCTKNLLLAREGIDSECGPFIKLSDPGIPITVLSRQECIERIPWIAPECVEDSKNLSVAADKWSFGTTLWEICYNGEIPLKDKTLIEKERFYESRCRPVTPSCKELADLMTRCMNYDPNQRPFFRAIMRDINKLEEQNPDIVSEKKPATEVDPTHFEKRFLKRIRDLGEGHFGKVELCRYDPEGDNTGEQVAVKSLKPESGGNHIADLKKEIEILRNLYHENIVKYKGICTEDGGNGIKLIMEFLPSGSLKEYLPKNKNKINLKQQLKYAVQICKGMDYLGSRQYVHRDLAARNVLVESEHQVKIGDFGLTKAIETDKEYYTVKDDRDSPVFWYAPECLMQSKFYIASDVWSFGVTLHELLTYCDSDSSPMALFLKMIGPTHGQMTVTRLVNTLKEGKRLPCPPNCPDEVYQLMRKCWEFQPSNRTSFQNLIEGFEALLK

## CC[C@H](C(=O)Nc1nccc2c(-c3nc(Nc4cn(C)nc4OC)ncc3C)c[nH]c12)N1CCN(C)CC1 [Example 4, (R)—N-(3-(2-((3-Methoxy-1-methyl-1H-pyrazol-4-yl)amino)-5-methylpyrimidin-4-yl)-1H-pyrrolo[2,3-c]pyridin-7-yl)-2-(4-methylpiperazin-1-yl)butanamide]
Mouse pharmacokinetics
  F: 106%
Mouse pharmacokinetics; mouse, po, plasma
  Cmax: 1060 ng/mL
  half-life: 227 min
Mouse pharmacokinetics; mouse, po, plasma, read-out: AUC0-24 hr
  AUC(0-t): 10200 ng·h/mL
JAK1
  IC50: < 500 nM
JAK2 [1]
  IC50: > 20 µM
JAK2 [2]
  IC50: < 100 nM
JAK2 [3]
  IC50: < 10 µM
